What was measured:
[1] = 308.15 K, 101 kPa, Liquid; for speed of sound: Linear variable-path acoustic interferometer
[2] = xn = mol fraction of the nth substance listed; conditions: 308.15 K, 101 kPa, Liquid; for speed of sound: Linear variable-path acoustic interferometer

CC#N [acetonitrile]
[1]
Conditions	mass density [kg/m3]	speed of sound [m/s]
–	770.6	1239

CC(=O)c1ccc(Cl)cc1 [4'-chloroacetophenone]
[1]
Conditions	mass density [kg/m3]	speed of sound [m/s]
–	1181.3	1390

CC(=O)c1ccccc1 [acetophenone] + CC#N
[2]
Conditions	mass density [kg/m3]	speed of sound [m/s]
x1 = 0.048	796.8	1254
x1 = 0.1023	823.3	1268
x1 = 0.1626	849.3	1284
x1 = 0.2321	874.7	1303
x1 = 0.3113	900	1327
x1 = 0.4024	924.7	1351
x1 = 0.5125	949.3	1374
x1 = 0.6426	972.2	1395
x1 = 0.8018	995.6	1417
x1 = 1	1020	1445

CC#N [acetonitrile] + CC(=O)c1ccc(C)cc1
[2], x2 = 0
Conditions	mass density [kg/m3]	speed of sound [m/s]
–	770.6	1239

CC#N [acetonitrile] + CC(=O)c1ccccc1
[2], x2 = 0
Conditions	mass density [kg/m3]	speed of sound [m/s]
–	770.6	1239

CC(=O)c1ccccc1 [acetophenone]
[1]
Conditions	mass density [kg/m3]	speed of sound [m/s]
–	1020	1445

CC(=O)c1ccc(C)cc1 [4'-methylacetophenone] + CC#N
[2]
Conditions	mass density [kg/m3]	speed of sound [m/s]
x1 = 0.0872	816	1272
x1 = 0.1449	841.6	1288
x1 = 0.2088	865.3	1305
x1 = 0.2823	888.1	1323
x1 = 0.3756	912.4	1344
x1 = 0.4771	934	1365
x1 = 0.6125	955.6	1389
x1 = 0.7811	976.1	1413
x1 = 1	996.3	1438

CC(=O)c1ccc(Cl)cc1 [4'-chloroacetophenone] + CC#N
[2]
Conditions	mass density [kg/m3]	speed of sound [m/s]
x1 = 0.092	857.2	1256
x1 = 0.1488	900.3	1266
x1 = 0.2128	941.5	1278
x1 = 0.2863	982.6	1292
x1 = 0.3792	1025.8	1310
x1 = 0.4876	1077.5	1330
x1 = 0.6196	1106.9	1350
x1 = 0.7847	1145	1372
x1 = 1	1181.3	1390

CCC(=O)c1ccccc1 [ethyl phenyl ketone]
[1]
Conditions	mass density [kg/m3]	speed of sound [m/s]
–	1000.6	1432

CCC(=O)c1ccccc1 [ethyl phenyl ketone] + CC#N
[2]
Conditions	mass density [kg/m3]	speed of sound [m/s]
x1 = 0.0418	793.4	1250
x1 = 0.0922	817.8	1264
x1 = 0.1459	841.2	1279
x1 = 0.2084	864.9	1296
x1 = 0.2864	889.8	1314
x1 = 0.3757	913.6	1335
x1 = 0.4796	936	1357
x1 = 0.6093	957.5	1381
x1 = 0.7791	978.6	1406
x1 = 1	1000.6	1432

CC#N [acetonitrile] + CC(=O)c1ccc(Cl)cc1
[2], x2 = 0
Conditions	mass density [kg/m3]	speed of sound [m/s]
–	770.6	1239

CC(=O)c1ccc(C)cc1 [4'-methylacetophenone]
[1]
Conditions	mass density [kg/m3]	speed of sound [m/s]
–	996.3	1438

CC#N [acetonitrile] + CCC(=O)c1ccccc1
[2], x2 = 0
Conditions	mass density [kg/m3]	speed of sound [m/s]
–	770.6	1239
